A word on the ED50: it is the dose at which the effect has come halfway, by size or by number of responders.

This note sets out measurements from US4500533A, “2,4,5-Triaryl pyrimidines and a method of treating pain, fever, thrombosis, inflammation and arthritis” (Eli Lilly and Company, priority 1983, dated 1985).

Experiment [1] deals with Mouse Writhing. Briefly: mouse writhing assay (analgesic activity). Format: in vivo, Cox standard strain albino male mice. To be noted: po, p.o. by gavage in corn oil-acacia emulsion (5%), three hours before i.p. acetic acid (0.60 percent), 10 minute observation starting five minutes after acetic acid, read-out: Mouse Writhing ED50 (dose required to inhibit induced writhing by fifty percent). From the text: The analgesic activity of a number of compounds provided by this invention has been determined in the standard mouse writhing assay. Writhing, which is characterized by contraction of the abdominal musculature, extension of the hindlegs, and rotation of the trunk, was induced in Cox standard strain albino male mice. The mice, weighing 18-24 grams, were fasted overnight and given the test compound by gavage in a corn oil-acacia emulsion (5%) three hours before writhing was induced by the intraperitoneal administration of acetic acid (0.60 percent). Each treatment group consisted of five mice. The total number of writhes for the treatment group was determined during a 10 minute observation starting five minutes after acetic acid administration. […] Table I which follows presents typical test results obtained with certain of the compounds of this invention. The results in the mouse writhing assay are presented as the effective oral (p.o.) dose in mg./kg. of the tested compound required to inhibit induced writhing in the test animals by fifty percent (ED50).
In general terms: Writhing tests count abdominal constrictions after an irritant is injected.

Experiment [2] relates to adjuvant-induced arthritis. Briefly: Established adjuvant-induced arthritis test in rats (uninjected hind paw swelling). Format: in vivo, male Lewis-Wistar rats. To be noted: AUC of mean uninjected paw volumes.

Turning to `COc1ccc(-c2cnc(-c3ccc(Cl)cc3)nc2-c2ccc(OC)cc2)cc1` [Example 1, 2-(4-Chlorophenyl)-4,5-bis(4-methoxyphenyl)pyrimidine], the ED50 in experiment [1] was found to be 0.99 mg/kg. In experiment [2] (25 mg./kg. p.o. × 15, daily days 15-29, corn oil-acacia emulsion), the “% Inhibition of Uninjected Paw Volume Inflammation, Days 14 through 30” value was 74%.
Turning to `COc1ccc(-c2cnc(-c3ccc(F)cc3)nc2-c2ccc(OC)cc2)cc1` [Example 2, 2-(4-Fluorophenyl)-4,5-bis(4-methoxyphenyl)pyrimidine], in experiment [1], the ED50 stood at 1.48 mg/kg. Also, in experiment [2] (10 mg./kg. p.o. × 15, daily days 15-29, corn oil-acacia emulsion), the “% Inhibition of Uninjected Paw Volume Inflammation, Days 14 through 30” value is listed as 70%.
